Series [1] has as its system NCI-H460 non-small-lung cancer cell line. Kind of series: NCI In Vitro Cell Line Screening, NSC H460 cell line. The note with it: for Log TGI NSC H460: concentration for total growth inhibition; for GI50 / CC50: Homo sapiens. Type of series: cell-based. From the text:
Cytotoxic and Cytostatic Screening of Series 1-9.

The next series relates to 600 bp calf thymus DNA. Kind of series: DNA reductive alkylation by catalytically reduced aziridinyl quinones. Particulars: for DNA alkylation percentage: catalytic reduction, anaerobic, pH 7.4 tris buffer, 30° C., 24 h, absorbance at 550 nm. It is filed as biochemical. The procedure:
DNA Alkylation Screening of Series 1-9. The extent of DNA reductive alkylation was determined by catalytic reduction of the aziridinyl quinones in the presence of 600 bp calf thymus DNA. Oxidative workup afforded DNA colored blue as a result of the aminoquinone chromophore. […] The anaerobic conditions employed for DNA reductive alkylation assays is not meant to mimic the environment of tumor cells. These conditions do permit an accurate assessment of the structural requirements for DNA alkylation by the hydroquinone species. To be sure, agents incapable of akylating DNA under these ideal conditions will not do so in the typical cellular environment.
Alkylation of DNA by Reduced Indoloquinones. To a mixture of 1-2 mg of sonicated (600 bp) calf thymus DNA in 2.0 mL of 0.05 M of pH 7.4 tris buffer and 2 mg of Pd on carbon was added a five-to-one base pair equivalent amount of the indoloquinone dissolved in 0.5 mL of dimethylsulfoxide. The resulting solution was degassed under argon for 30 min., after which the mixture was purged with H2 for 10 min. The solution was then purged with argon for 10 min. and placed in a 30° C. bath for 24 h. The reaction was opened to the air and the catalyst was removed with a Millex-PF […] syringe filter. The filtrate was adjusted to 0.3 M acetate with a 3 M stock solution of pH 5.1 acetate and then diluted with two volumes of ethanol. The mixture was chilled at −20° C. for 12 h and the DNA pellet collected by centrifuging at 12,000 g for 20 min. The pellet was redissolved in water and then precipitated and centrifuged again. The resulting blue or red pellet was suspended in ethanol, centrifuged, and dried. The dried pellet was weighed and dissolved in 1 mL of double distilled water resulting in a clear colored solution with […]max˜550 nm, □˜750 M^−1 cm^−1. This is the chromophore of the aminoquinone resulting from nucleophile-mediated opening of the aziridine ring. Model 2′-chloroethyl aminoquinones for extinction coefficient determination were prepared by treatment of the indoloquinone with HCl. {Skibo, E. B. and Xing, C., Chemistry and DNA Alkylation Reactions of Aziridinyl Quinones: Development of an Efficient Alkylating Agent of the Phosphate Backbone, Biochemistry, 1998, 37, 15199-15213}.

In series [2] the test system is National Cancer Institute 60-cell line. Briefly: NCI 60-cell line in vitro screen (average cytotoxicity and cancer specificity). Particulars: for Average Log LC50 60-Cell Line: mean over 60 cell lines, ± value measures cancer specificity. The procedure: Cytotoxic and Cytostatic Screening of Series 1-9. […] The cytostatic parameters include GI50 and TGI, which are the concentrations of drug required for 50% growth inhibition and total growth inhibition, respectively. The cytotoxic parameter is the LC50, which is the concentration required for 50% cell kill.
4. […] Cancer specificity is measured from the ± value under the “Average Log LC50 60-Cell Line” heading of Table 5. A ± value greater than 2 indicates a greater than 100-fold higher/lower cytotoxicity in some histological cancer types compared to the mean cytotoxicity.
The DT-diaphorase levels in the National Cancer Institute 60-cell line in vitro screen have been determined and correlated with the cytotoxicity of antitumor agents activated by 2-electron reduction. {Fitzsimmons, S. A., Workman, P., Grever, M., Paull, K., Camalier, R., and Lewis, A. D., Reductase Enzyme Expression Across the National Cancer Institute Tumor Cell Line Panel: Correlation with Sensitivity To Mitomycin C and EO9, J. Natl. Cancer Inst., 1996, 88, 259-69}. Sensitive cancers usually include NSC lung and colon cancers (and to a lesser extent CNS, melanoma, and renal cancers) by virtue of their elevated DT-diaphorase levels.

For a further series, the system named is B16 melanoma. Kind of series: animal or person. Type of series: in vivo. From the text: Shown in Tables 6 and 7 are B16 melanoma syngraft assays {Griswold, D. P., Consideration of the Subcutaneously Implanted B16 Melanoma as a Screening Model for Potential Anticancer Agents, Cancer Chemother Reports, 1972, 3, 315-324} of some members of Series 1-9, as well as related compounds previously reported from this laboratory. {Xing, C. G., Wu, P., Skibo, E. B., and Dorr, R. T., Design of cancer-specific antitumor agents based on aziridlinylcyclopent[b]indoloquinones, J. Med. Chem., 2000, 43, 457-466}. Each agent was evaluated at three doses in C57/bl mice: 2, 3 or 5 mg/kg/day, on days 1, 5, and 9 after subcutaneous tumor implantation of 10^5 cells in the front flank on day 0. “Toxic” means that there was early lethality, or ≧50% lethality prior to any deaths in the control group. The treated over control values (T/C) were measured at day 25 of the study. A T/C value <40% is considered active.
In vivo Evaluation. The B-16 melanoma in C57/bl mice syngraft model was employed to determine in vivo activity. {Griswold, D. P., Consideration of the Subcutaneously Implanted B16 Melanoma as a Screening Model for Potential Anticancer Agents, Cancer Chemother Reports, 1972, 3, 315-324}. Each agent was evaluated at three doses: 2, 3 or 5 mg/kg/day, on days 1, 5, and 9 after subcutaneous tumor implantation of 10^5 cells in the front flank on day 0. “Toxic” means that there was early lethality, or ≧50% lethality prior to any deaths in the control group. The treated over control values (T/C) were measured at day 25 of the study. A T/C value<40% is considered active. […] The control was obtained with drug-free animals.

Setting [3] is: NCI-H460, concentration for 50% growth inhibition, read-out: Log GI50 NSC H460 (converted).
Where [4] appears, read: NCI-H460, read-out: Log LC50 NSC H460, concentration for 50% cell kill (converted).
Setting [5] is: 2 mg/Kg/Day on days 1, 5, 9, T/C at day 25, <40% active.
Where [6] appears, read: 3 mg/Kg/Day on days 1, 5, 9, T/C at day 25, <40% active.
[7] abbreviates: 5 mg/Kg/Day on days 1, 5, 9, T/C at day 25, <40% active.
The mark [8] stands for this setting: NCI-H460, read-out: Log GI50 NSC H460 (converted).

This note sets out measurements from patent publication US20030139609A1, “Aziridinyl quinone antitumor agents based on indoles and cyclopent[b]indoles” (priority 2001, published 2003).

Where “and” joins values, the source holds several entries; their conditions need not be identical. Equal entries are not always repeated. Where two headings read alike, the source gives them in different places.

In the case of “6-Aziridinyl-3-(hydroxymethyl)-2-methylcarboxylindol-4,7-dione [Compound 9b]”, the “Log LC50 NSC H460” value in series [1] (concentration for 50% cell kill) is −5.21 and −4.95. In addition, in series [1] (concentration for 50% growth inhibition), the “Log GI50 NSC H460” value was −5.90 and −5.80. For the same compound, the “Log TGI NSC H460” value in series [1] is −5.55 and −5.39. Besides, in the series on 600 bp calf thymus DNA, the “% of DNA bases reductively activated” value was found to be 2% and the DNA alkylation percentage is on record as 2.2%. The “Average Log LC50 60-Cell Line” value in series [2] is −5.20 ± 1.04 and −5.32 ± 1.14. In addition, the “cytostatic/cytotoxic activity versus histological cancer type (in words)” value in series [2] (text b52, FIG. 4) was “significant cytotoxic and cytostatic properties”.

With `O=C1C=C(N2CC2)C(=O)c2c1[nH]c1c2CCC1O` (centres unmarked) [Compound 1a, 7-Aziridinyl-3-hydroxy-1,2,3,4-tetrahydrocyclopent[b]indole-5,8-dione], in series [1] (setting [3]), the GI50 is 10 nM. Besides, the CC50 in series [1] (setting [4]) is 295 nM. The “Log TGI NSC H460” value in series [1] is on record as −6.99. For the same compound, the DNA alkylation percentage in the series on 600 bp calf thymus DNA was 22.5%. Moreover, in series [2], the “Average Log LC50 60-Cell Line” value is −5.66 ± 1.52.

On to `O=C1C(N2CC2)=CC(=O)c2c1[nH]c1c2CCC1O` (centres unmarked) [Compound 3a, 6-Aziridinyl-3-hydroxy-1,2,3,4-tetrahydrocyclopent[b]indole-5,8-dione], for which the GI50 in series [1] (setting [3]) was 7.24 nM. Further, the CC50 in series [1] (setting [4]) is 1780 nM. In addition, the “Log TGI NSC H460” value in series [1] was −7.24. In the series on 600 bp calf thymus DNA, this compound came in with a DNA alkylation percentage of 30%. Further, in series [2], the “cytostatic/cytotoxic activity versus histological cancer type (in words)” value is “significant cytostatic/cytotoxic activity” and the “Average Log LC50 60-Cell Line” value is −5.59 ± 1.95.

Take `CC1=C(N2CC2)C(=O)c2[nH]c3c(c2C1=O)CCC3O` (centres unmarked) [Compound 4a]: in series [1] (setting [3]), the GI50 was 10 nM. The CC50 in series [1] (setting [4]) was 100000 nM. The “Log TGI NSC H460” value in series [1] is on record as −6.97. In the series with 600 bp calf thymus DNA, the DNA alkylation percentage turned out to be 10%. Besides, the “in vivo toxicity (in words)” value in the series with B16 melanoma (2, 3 or 5 mg/kg/day) is recorded as “without any toxicity”. Further, the response vs control in vivo at 2 mg/kg with B16 melanoma (Mus musculus, B16, 600 h, 2 mg/Kg/Day on days 1, 5, 9, T/C at day 25, <40% active, read-out: In vivo T/C (Treated/Control)) turned out to be 75%. The response vs control in vivo at 3 mg/kg in the series with B16 melanoma (Mus musculus, B16, 600 h, 3 mg/Kg/Day on days 1, 5, 9, T/C at day 25, <40% active, read-out: In vivo T/C (Treated/Control)) is 45%.

Take `CC(=O)OC1CCc2c1[nH]c1c2C(=O)C(C)=C(N2CC2)C1=O` (centres unmarked) [Compound 4b]: the GI50 in series [1] (setting [3]) is 112 nM. Further, the CC50 in series [1] (setting [4]) is 1230 nM. Moreover, the “Log TGI NSC H460” value in series [1] is −6.17. Also, in the series with 600 bp calf thymus DNA, the DNA alkylation percentage is on record as 44%. In series [2], the “± value of Average Log LC50 60-Cell Line” value is ~1 and the “Average Log LC50 60-Cell Line” value is given as −4.67 ± 1.04.

In the series on 600 bp calf thymus DNA, `CC(=O)OC1CCc2c3c(n(C(C)=O)c21)C(=O)C(N1CC1)=C(C)C3=O` (centres unmarked) [Compound 4c] displayed a DNA alkylation percentage of 9%. Moreover, the “Average Log LC50 60-Cell Line” value in series [2] was −4.60 ± 1.12 and −4.49 ± 1.31. Also, the “In vivo T/C (Treated/Control)” value in the series on B16 melanoma (setting [5]) is given as 37%; in the series on B16 melanoma (setting [6]) it was 15%; with B16 melanoma (setting [7]), 15%. In the series on B16 melanoma (2, 3 or 5 mg/kg/day), the “in vivo antitumor activity (in words)” value is “active at all doses”. Moreover, the “in vivo toxicity (in words)” value with B16 melanoma (2, 3 or 5 mg/kg/day) is “without any toxicity”.

As to `CC1=C(N2CC2)C(=O)c2c(c3c(n2C)C(O)CC3)C1=O` (centres unmarked) [Compound 5a, 6-Aziridinyl-4,7-dimethyl-3-Hydroxy-1,2,3,4-tetrahydrocyclopent[b]indole-5,8-dione], in series [1], the “cytostatic and cytotoxic activity (−log)” value is 5-6; the “Log TGI NSC H460” value is listed as −5.12. Also, the GI50 in series [1] (setting [3]) was 1260 nM. The CC50 in series [1] (setting [4]) was 50100 nM. In the series with 600 bp calf thymus DNA, this compound showed a DNA alkylation percentage of 0.3%. In addition, the “cytostatic/cytotoxic activity versus histological cancer type (in words)” value in series [2] is “inactive against all histological cancer types”. Moreover, in series [2] (Homo sapiens, 60 cell, read-out: Average Log LC50 60-Cell Line (converted)), the CC50 was ≥ 100 µM.

As for `Cn1c(CO)c(CO)c2c1C(=O)C=C(N1CC1)C2=O` [Compound 6b, 5-Aziridinyl-2,3-di(hydroxymethyl)-1-methylindole-4,7-dione], the GI50 in series [1] (setting [3]) is 10 nM. In addition, the “Log TGI NSC H460” value in series [1] is recorded as −8. The same compound returned a DNA alkylation percentage with 600 bp calf thymus DNA of 3.8%. The “Average Log LC50 60-Cell Line” value in series [2] is −5.35 ± 2.65 and −5.50 ± 2.5. The “In vivo T/C (Treated/Control)” value with B16 melanoma (setting [5]), in the series with B16 melanoma (setting [6]) and in the series with B16 melanoma (setting [7]) was “Toxic (“Toxic” means ≧ 50% lethality before any control growth deaths)” each time.

Turning to `CCOC(=O)c1[nH]c2c(c1CO)C(=O)C(N1CC1)=CC2=O` [Compound 6c, 5-Aziridinyl-2-ethylcarboxyl-3-(hydroxymethyl)indole-4,7-dione], the GI50 in series [1] (setting [8]) was 10 nM. The CC50 was 631 nM in series [1] (setting [4]) and 631 nM in series [1] (NCI-H460, read-out: −log LC50 value, H460 cell line (converted)). For the same compound, the “Log TGI NSC H460” value in series [1] is −7 and −6.95. In series [2], the “Average Log LC50 60-Cell Line” value is recorded as −5.79 ± 1.98.

For `CCOC(=O)c1[nH]c2c(c1CO)C(=O)C(N1CC1)=C(C)C2=O` [Compound 7b, 5-Aziridinyl-2-ethylcarboxyl-3-hydroxymethyl-6-methylindole-4,7-dione], in series [1] (setting [8]), the GI50 is 10 nM. Besides, in series [1], the “Log TGI NSC H460” value was −7.99 and −7.96. The “Average Log LC50 60-Cell Line” value in series [2] is −5.69 ± 2.31 and −5.75 ± 2.25.

As to `O=C1C(N2CC2)=CC(=O)c2c1[nH]c(CO)c2CO` [Compound 9a, 6-Aziridinyl-2,3-di(hydroxymethyl)indole-4,7-dione], the concentration for 50% growth inhibition (GI50) in series [1] (setting [3]) is 138 nM. The CC50 in series [1] (setting [4]) is 11700 nM. In series [1], the “Log TGI NSC H460” value is recorded as −5.94. In the series on 600 bp calf thymus DNA, the DNA alkylation percentage is reported as 3.4%. The “Average Log LC50 60-Cell Line” value in series [2] was −5.07 ± 1.43.
